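Following 48 hours of exposure in 96-well plates, responses at five concentrations were used to interpolate endpoints linearly. Abbreviation: GI50, concentration required for 50% inhibition of growth.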 Active and inactive are the calls of the source. Cut-off read from the data, not from the text of the source: active = GI50 up to about 1.1 µM and inactive = higher.
Key:
Experiment in all cases: NCI anticancer screen, dose series, 48 h
[1] = test system: OVCAR-4
[2] = test system: IGROV-1
[3] = test system: HOP-92
[4] = test system: SW-620
[5] = test system: OVCAR-8
[6] = test system: MCF7
[7] = test system: BT-549
[8] = test system: Malme-3M
[9] = test system: COLO 205
[10] = test system: UO-31
[11] = test system: SF-295
[12] = test system: KM12
[13] = test system: SF-268
[14] = test system: RPMI-8226
[15] = test system: M14
[16] = test system: SF-539
[17] = test system: HCT-116
[18] = test system: SK-OV-3
[19] = test system: HOP-62
[20] = test system: HL-60

| SMILES | GI50 [1] | GI50 [2] | GI50 [3] | GI50 [4] | GI50 [5] | GI50 [6] | GI50 [7] | GI50 [8] | GI50 [9] | GI50 [10] | GI50 [11] | GI50 [12] | GI50 [13] | GI50 [14] | GI50 [15] | GI50 [16] | GI50 [17] | GI50 [18] | GI50 [19] | GI50 [20] |
| --- | --- | --- | --- | --- | --- | --- | --- | --- | --- | --- | --- | --- | --- | --- | --- | --- | --- | --- | --- | --- |
| O=C(O)c1nc(-c2ccccc2)[nH]c1C(=O)O | 16.8 µM (inactive) | 11.7 µM (inactive) | 16.3 µM (inactive) | 2.47 µM (inactive) | 14.1 µM (inactive) | 2.32 µM (inactive) | 17.4 µM (inactive) | 15.3 µM (inactive) | 17 µM (inactive) | 12.1 µM (inactive) | 16.7 µM (inactive) | 4.65 µM (inactive) | 16 µM (inactive) | 1.84 µM (inactive) | 10.9 µM (inactive) | 7.8 µM (inactive) | 4.43 µM (inactive) | 18.4 µM (inactive) | 16 µM (inactive) | – |
| Cc1ccc(S(=O)(=O)c2ccsc2NC(=O)c2ccccc2)cc1 | 20.9 µM (inactive) | > 43.3 µM (inactive) | 26.7 µM (inactive) | > 100 µM (inactive) | 28.6 µM (inactive) | > 26.7 µM (inactive) | > 100 µM (inactive) | > 100 µM (inactive) | > 100 µM (inactive) | > 49.3 µM (inactive) | 22.1 µM (inactive) | > 100 µM (inactive) | 31.3 µM (inactive) | > 100 µM (inactive) | > 100 µM (inactive) | 15.4 µM (inactive) | > 100 µM (inactive) | 46.9 µM (inactive) | 17 µM (inactive) | – |
| COC(=O)c1ccccc1/C=C1\Cc2cc3c(cc2C1=O)CCC3 | > 100 µM (inactive) | > 100 µM (inactive) | – | > 100 µM (inactive) | > 100 µM (inactive) | 40.6 µM (inactive) | > 100 µM (inactive) | > 100 µM (inactive) | > 100 µM (inactive) | > 100 µM (inactive) | 43.5 µM (inactive) | > 100 µM (inactive) | 68.5 µM (inactive) | > 100 µM (inactive) | 24 µM (inactive) | > 100 µM (inactive) | 45 µM (inactive) | > 100 µM (inactive) | 29.6 µM (inactive) | > 100 µM (inactive) |
| N#CC(C#N)=C(N)/C(C#N)=C/c1ccc2ccccc2n1 | 35.4 µM (inactive) | 16.9 µM (inactive) | 18.3 µM (inactive) | > 10 µM (inactive) | 30.5 µM (inactive) | 30.7 µM (inactive) | 26.5 µM (inactive) | 96.8 µM (inactive) | – | 15.5 µM (inactive) | 21.3 µM (inactive) | 19.5 µM (inactive) | > 100 µM (inactive) | 36.9 µM (inactive) | 33.7 µM (inactive) | – | 15.1 µM (inactive) | 35.3 µM (inactive) | 16 µM (inactive) | – |
| Cc1ccc(NC(=O)COc2ccc(Cl)cc2)cc1Cl | > 100 µM (inactive) | 36.5 µM (inactive) | 51.8 µM (inactive) | > 100 µM (inactive) | 28.9 µM (inactive) | > 100 µM (inactive) | 70.3 µM (inactive) | 30.5 µM (inactive) | > 100 µM (inactive) | 30.3 µM (inactive) | 50.5 µM (inactive) | > 100 µM (inactive) | 53.1 µM (inactive) | 87.5 µM (inactive) | 47.1 µM (inactive) | 83.6 µM (inactive) | 14.4 µM (inactive) | 52.4 µM (inactive) | 20 µM (inactive) | – |
| CC(C)CNP(=O)(NCC(C)C)Oc1ccc(CC(NC(=O)OCc2ccccc2)C(=O)OCc2ccccc2)cc1 (configuration not stated) | 18.3 µM (inactive) | 35.4 µM (inactive) | 61.4 µM (inactive) | 20.4 µM (inactive) | 17.3 µM (inactive) | 11.1 µM (inactive) | 20.7 µM (inactive) | 19.1 µM (inactive) | 19.2 µM (inactive) | 20.3 µM (inactive) | 18.5 µM (inactive) | 18.1 µM (inactive) | 17.6 µM (inactive) | 14.5 µM (inactive) | 24.3 µM (inactive) | – | 18.7 µM (inactive) | 15.2 µM (inactive) | 14.7 µM (inactive) | – |
| Cn1c2ccc([N+](=O)[O-])cc2c(=O)c2c(O)cc(O)cc21 | 31.2 µM (inactive) | 15.5 µM (inactive) | 32.7 µM (inactive) | 68.2 µM (inactive) | 13.2 µM (inactive) | 13.7 µM (inactive) | 28.4 µM (inactive) | 18.6 µM (inactive) | > 100 µM (inactive) | 59 µM (inactive) | 15.3 µM (inactive) | 61.1 µM (inactive) | 19.7 µM (inactive) | > 100 µM (inactive) | 60.4 µM (inactive) | 24.3 µM (inactive) | – | – | – | > 100 µM (inactive) |
| CC1=C(C(=O)OCCc2ccc([N+](=O)[O-])cc2)C(c2cccc([N+](=O)[O-])c2)C(C(=O)OC(C)C)=C(C)N1 (configuration not stated) | > 100 µM (inactive) | 9.53 µM (inactive) | – | 6.68 µM (inactive) | 4.88 µM (inactive) | 3.72 µM (inactive) | 2.94 µM (inactive) | 6.75 µM (inactive) | 5.81 µM (inactive) | 5.43 µM (inactive) | 4.19 µM (inactive) | 6.05 µM (inactive) | 6.4 µM (inactive) | 2.88 µM (inactive) | 3.7 µM (inactive) | > 100 µM (inactive) | 3.69 µM (inactive) | > 100 µM (inactive) | 5.55 µM (inactive) | 3.52 µM (inactive) |
| N#CCCN(C(=O)Nc1ccccc1)[C@H]1CCCC[C@@H]1N(C(=O)Nc1ccccc1)c1ccccc1 | 64.6 µM (inactive) | 61 µM (inactive) | > 100 µM (inactive) | 72.6 µM (inactive) | > 100 µM (inactive) | 48.2 µM (inactive) | > 100 µM (inactive) | > 100 µM (inactive) | 83 µM (inactive) | 54.2 µM (inactive) | 55.7 µM (inactive) | 32.8 µM (inactive) | – | 36.7 µM (inactive) | 64.7 µM (inactive) | > 100 µM (inactive) | 66.7 µM (inactive) | > 100 µM (inactive) | > 100 µM (inactive) | – |
| CC(C)(C)OC(=O)C1C(=O)NC(=O)CC1CC(OCc1ccccc1)C(COCc1ccccc1)OCc1ccccc1 (configuration not stated) | 6.55 µM (inactive) | 23.2 µM (inactive) | 11.9 µM (inactive) | 9.33 µM (inactive) | 10.3 µM (inactive) | 4.51 µM (inactive) | 5.48 µM (inactive) | 3.06 µM (inactive) | – | 2.19 µM (inactive) | 8.38 µM (inactive) | – | 11.3 µM (inactive) | 3.07 µM (inactive) | 14 µM (inactive) | 10.9 µM (inactive) | 5.36 µM (inactive) | – | – | 1.97 µM (inactive) |
| Cc1cn(CC2(CO)CCC2)c(=O)[nH]c1=O | > 100 µM (inactive) | > 100 µM (inactive) | – | > 100 µM (inactive) | > 100 µM (inactive) | > 100 µM (inactive) | > 100 µM (inactive) | > 100 µM (inactive) | > 100 µM (inactive) | > 100 µM (inactive) | > 100 µM (inactive) | > 100 µM (inactive) | > 10 µM (inactive) | > 100 µM (inactive) | – | > 100 µM (inactive) | > 100 µM (inactive) | > 100 µM (inactive) | > 100 µM (inactive) | > 100 µM (inactive) |
| Cn1c2ccccc2c2c3c(c4c5ccccc5n(C)c4c21)C(=O)N(c1ccccc1)C3=O | > 100 µM (inactive) | 98.6 µM (inactive) | > 100 µM (inactive) | > 100 µM (inactive) | > 100 µM (inactive) | > 100 µM (inactive) | > 100 µM (inactive) | > 100 µM (inactive) | > 100 µM (inactive) | > 100 µM (inactive) | > 100 µM (inactive) | > 100 µM (inactive) | – | > 100 µM (inactive) | > 100 µM (inactive) | > 100 µM (inactive) | > 100 µM (inactive) | > 100 µM (inactive) | > 100 µM (inactive) | – |
| CC(=O)OCC(=O)[C@@]12OC(C)(C)O[C@@H]1C[C@H]1[C@@H]3CC=C4C[C@@H](O)CC[C@]4(C)[C@H]3CC[C@@]12C | > 100 µM (inactive) | 50.5 µM (inactive) | – | > 100 µM (inactive) | 36.7 µM (inactive) | > 100 µM (inactive) | 31.6 µM (inactive) | > 100 µM (inactive) | > 100 µM (inactive) | > 100 µM (inactive) | 33.1 µM (inactive) | > 100 µM (inactive) | 31.6 µM (inactive) | 59.8 µM (inactive) | > 100 µM (inactive) | 30.8 µM (inactive) | 68.1 µM (inactive) | 38.3 µM (inactive) | 32.2 µM (inactive) | > 100 µM (inactive) |
| CCOC(=O)CNC(=O)C(CSC(=O)N(O)c1ccc(Cl)cc1)NC(=O)CCC(N)C(=O)OCC (configuration not stated) | – | 4.14 µM (inactive) | 3.98 µM (inactive) | 14.8 µM (inactive) | > 50 µM (inactive) | > 50 µM (inactive) | > 50 µM (inactive) | – | > 50 µM (inactive) | > 50 µM (inactive) | > 50 µM (inactive) | 12.2 µM (inactive) | 1.88 µM (inactive) | 12.1 µM (inactive) | 34.8 µM (inactive) | > 50 µM (inactive) | > 50 µM (inactive) | > 50 µM (inactive) | 24.3 µM (inactive) | – |
| CC(=O)OC1(C)CC(C)C(=O)C(C(O)CC2CC(=O)NC(=O)C2)C1 (configuration not stated) | 0.0184 µM (active) | 0.031 µM (active) | 0.00172 µM (active) | 0.015 µM (active) | 0.0122 µM (active) | 0.0176 µM (active) | 0.0334 µM (active) | 0.0186 µM (active) | 0.0108 µM (active) | 0.0219 µM (active) | 0.0127 µM (active) | 0.00746 µM (active) | 0.0329 µM (active) | 0.0118 µM (active) | 0.0161 µM (active) | 0.0145 µM (active) | 0.00743 µM (active) | – | 0.0193 µM (active) | 0.00955 µM (active) |
